How the values were obtained:
Test in all cases: relative viability (nuclei count vs DMSO), 5 days (fraction); higher = more cells survive
[1] = compound: C[C@@H](Oc1cc(-c2cnn(C3CCNCC3)c2)cnc1N)c1c(Cl)ccc(F)c1Cl [Crizotinib] + Nc1nc2[nH]cc(CCc3ccc(C(=O)N[C@@H](CCC(=O)O)C(=O)O)cc3)c2c(=O)[nH]1 [Pemetrexed] (partner 0.2 µM)
Procedure, shortened: (§1)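 For relative viability, nuclei counts in treated wells were divided by those in vehicle wells. Lung cancer cell lines had been pin-tool dosed in 1536-well plates the day after seeding and cultured for 5 days, then fixed and stained in one step (final 0.05% Triton X-100, 1% formaldehyde, 1 ug/ml Hoechst) and imaged at 4×. Doses were one drug alone or a fixed anchor-drug dose plus five library-drug doses (not always all listed) in √10 steps, and values are duplicate-plate medians.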

[2] = compound: CC(C)C[C@H](NC(=O)[C@H](CCc1ccccc1)NC(=O)CN1CCOCC1)C(=O)N[C@@H](Cc1ccccc1)C(=O)N[C@@H](CC(C)C)C(=O)[C@@]1(C)CO1 [Carfilzomib] + NC(=O)Nc1cc(-c2cccc(F)c2)sc1C(=O)N[C@H]1CCCNC1 [AZD7762] (partner 0.2 µM)
Procedure, shortened: as §1

[3] = compound: O=C(c1cc(Cc2n[nH]c(=O)c3ccccc23)ccc1F)N1CCN(C(=O)C2CC2)CC1 [Olaparib] + C[C@]1(O)C[C@@H](c2nc(-c3ccc4ccc(-c5ccccc5)nc4c3)c3c(N)nccn32)C1 [Linsitinib] (partner 1 µM)
Procedure, shortened: as §1

[4] = compound: CC(C)C[C@H](NC(=O)[C@H](CCc1ccccc1)NC(=O)CN1CCOCC1)C(=O)N[C@@H](Cc1ccccc1)C(=O)N[C@@H](CC(C)C)C(=O)[C@@]1(C)CO1 [Carfilzomib] + CC(=O)Nc1cccc(-n2c(=O)n(C3CC3)c(=O)c3c(Nc4ccc(I)cc4F)n(C)c(=O)c(C)c32)c1 [Trametinib] (partner 0.02 µM)
Procedure, shortened: as §1

Cell Line | relative viability ([1]; first compound 0.01 µM) | relative viability ([1]; first compound 0.03162 µM) | relative viability ([1]; first compound 0.1 µM) | relative viability ([1]; first compound 0.3162 µM) | relative viability ([1]; first compound 1 µM) | relative viability ([2]; first compound 0.001 µM) | relative viability ([2]; first compound 0.003162 µM) | relative viability ([2]; first compound 0.01 µM) | relative viability ([2]; first compound 0.03162 µM) | relative viability ([2]; first compound 0.1 µM) | relative viability ([3]; first compound 0.08 µM) | relative viability ([3]; first compound 0.253 µM) | relative viability ([3]; first compound 2.53 µM) | relative viability ([3]; first compound 8 µM) | relative viability ([4]; first compound 0.001 µM) | relative viability ([4]; first compound 0.003162 µM) | relative viability ([4]; first compound 0.01 µM) | relative viability ([4]; first compound 0.03162 µM) | relative viability ([4]; first compound 0.1 µM)
201T | 0.296 | 0.279 | 0.32 | 0.324 | 0.331 | 0.67 | 0.574 | 0.626 | 0.591 | 0.461 | 1.04 | 1.01 | 1.04 | 1.01 | 0.712 | 0.705 | 0.718 | 0.734 | 0.679
A549 | – | – | – | – | – | – | – | – | – | – | 0.761 | 0.567 | 0.588 | 0.436 | – | – | – | – | –
A-427 | 0.967 | 0.954 | 0.957 | – | – | 0.725 | 0.82 | 0.696 | 0.527 | 0.173 | 1.12 | 1.03 | 1.03 | 0.851 | 0.83 | 0.744 | 0.755 | 0.528 | 0.201
ABC-1 | – | – | – | – | – | – | 0.786 | 0.506 | – | 1.01 | 1.1 | 0.918 | 0.644 | 0.556 | – | – | – | – | –
BEN | 0.726 | 0.741 | 0.739 | 0.596 | 0.702 | 0.717 | 0.619 | 0.657 | 0.59 | 0.409 | 0.89 | 0.749 | 1.05 | 0.982 | 0.961 | 0.995 | 1.07 | 1.11 | 0.451
CAL-12T | 1.09 | 1.09 | 1.06 | 1.19 | 1.02 | 0.607 | 0.719 | 0.787 | 0.586 | 0.26 | 1.05 | 0.751 | 0.825 | 0.666 | 0.367 | 0.288 | 0.428 | 0.167 | 0.11
COR-L23 | 0.19 | 0.189 | 0.201 | 0.207 | 0.199 | – | – | – | – | – | 1.09 | 0.852 | 0.716 | 0.432 | 0.565 | 0.739 | 0.577 | 0.0935 | 0.0822
COR-L 105 | 1.04 | 1.16 | 1 | 1.24 | 1.07 | – | – | – | – | – | 1.03 | 0.804 | 0.706 | 0.591 | 0.451 | 0.458 | 0.416 | 0.35 | 0.328
Calu-6 | – | – | – | – | – | – | – | – | – | – | 1.06 | 0.866 | 0.824 | 0.717 | – | – | – | – | –
ChaGo-K-1 | 0.253 | 0.249 | 0.253 | 0.241 | 0.261 | 0.813 | 0.898 | 0.855 | 0.542 | 0.152 | – | – | – | – | 0.873 | 0.924 | 0.878 | 0.47 | 0.168
EBC-1 | – | – | – | – | – | – | – | – | – | – | 1.07 | 0.824 | 0.848 | 0.751 | – | – | – | – | –
EKVX | 0.362 | 0.414 | 0.404 | 0.383 | 0.327 | 0.318 | 0.782 | 0.756 | – | 0.761 | 1.38 | 0.91 | 1.01 | 1.06 | 0.338 | 0.418 | 0.368 | – | 0.172
EMC-BAC-2 | 0.442 | 0.419 | 0.444 | – | 0.448 | 1.13 | 1.22 | 1.22 | 1.06 | 0.716 | 0.945 | 0.792 | 0.85 | 0.621 | 0.895 | 0.962 | 1.04 | 0.791 | 0.277
EPLC-272H | 0.298 | 0.355 | 0.397 | 0.37 | 0.402 | 0.195 | 0.253 | 0.209 | 0.159 | 0.0687 | 1.25 | 1.11 | 1.21 | 1.03 | 0.281 | 0.303 | 0.286 | 0.0724 | 0.0619
H3255 | 0.556 | 0.553 | 0.592 | 0.54 | 0.557 | 0.849 | 0.982 | 1.13 | 0.795 | 0.237 | 1.04 | 0.912 | 0.932 | 0.825 | 0.67 | 0.737 | 0.643 | – | 0.24
HARA | 0.222 | 0.242 | 0.257 | 0.183 | 0.236 | 0.454 | 0.232 | 0.398 | 0.18 | 0.146 | 1.07 | 0.829 | 1.04 | 0.792 | 0.66 | 0.693 | 0.627 | 0.339 | 0.109
HCC-15 | 0.234 | 0.222 | 0.233 | 0.209 | 0.213 | 1.12 | 1.29 | 1.31 | 1.12 | 0.453 | 0.927 | 0.828 | 0.836 | 0.768 | 0.367 | 0.426 | 0.432 | 0.372 | 0.17
HCC-44 | 0.603 | 0.648 | 0.689 | 0.593 | 0.665 | 1.01 | 1.02 | 1.03 | 0.988 | 0.716 | 0.654 | 0.562 | 0.713 | 0.682 | 0.966 | 1.08 | 1 | 1.07 | 0.77

Source: the supplement of paper PMC10307832
